Experimental findings from patent US12570612B2, “Substituted nitrogen heterocyclic compound and anesthetic effect thereof” (priority 2019, dated 2026) are described below.

As a reminder, the ED50 is the dose at which the effect has come halfway, by size or by number of responders.

One data set deals with SD rats. The note with it: for After the infusion is stopped: Righting reflex recovery time / Recovery time after stopping infusion: after 1 hour continuous infusion at 2 times the MIR; for After the infusion is stopped: Righting reflex recovery time / Recovery time after stopping infusion / Sedation onset time: SD rats; for Sedation onset time: continuous tail vein infusion at 2 times the MIR. The protocol: Experimental Methods: Adult male SD rats with body weight ranging from 250 g to 350 g were selected for continuous infusion test.
Evaluation indexes: the time from the beginning of continuous infusion to the […] of sedation in rats; the time from the cessation of infusion to the restoration of the forepaw turning reflex after 1 hour of continuous infusion; the time from the cessation of infusion to the complete restoration of rats after 1 hour of continuous infusion.

The subject of data set [1] is Sprague-Dawley rats. It counts as in vivo. Conditions: tail vein.
In data set [2] the test system is Sprague-Dawley rats. The data set can be described thus: animal or person. The note with it: rats; for ED50: Rattus norvegicus, LORR, up and down method, tail vein, class symbols, read-out: ED50. Type of data set: in vivo. An excerpt: Evaluating indicator: The end point of anesthesia: the disappearance of forepaw righting reflex (lorr) was used as the end point of anesthesia; General anesthesia effect: the disappearance of forepaw righting reflex in rats lasting for 30 seconds is taken as the index of general anesthesia effect; Anesthesia recovery index: the recovery of rat forepaw righting reflex was used as the index of anesthesia recovery.

Data set [3] has as its system Sprague-Dawley rats. Nature of the data set: Pharmacological effect and adverse reactions under the equivalent dose (2ED50), Group D compounds. Type of data set: in vivo. The note with it: for Righting reflex duration / Sedation duration / Onset time: 2ED50, tail vein, rats, n=8; for Adverse reaction: Convulsions / Adverse reaction: Cough, broken-winded / Adverse reaction: Euphoria / Adverse reaction: Four limbs rigidity / Adverse reaction: Red urine / Adverse reaction: Slower breathing, Tetany convulsion / Adverse reaction: Systemic stiffness, Convulsions, Opisthotonus / Adverse reaction: Tongue stretching / Adverse reaction: Tremor: equivalent dose (2 × ED50), number of rats of n = 8. An excerpt:
Evaluation index: onset time: from the completion of drug injection to the disappearance of forepaw righting reflex in rats; Duration of anesthesia: the time from the disappearance of rat forepaw righting reflex to the recovery of rat forepaw righting reflex; Recovery time of anesthesia: the time from the […] to complete recovery;

Where [4] appears, read: continuous infusion 2 x MIR 1 hour, rats affected/rats.

Bounds are passed on as bounds.

For `COC(OC)(OC)C(=O)c1c(F)cnn1[C@H](C)c1ccccc1` [Compound D29], in the data set on SD rats, the “After the infusion is stopped: Righting reflex recovery time” value (“After the infusion is stopped” for short) fell in the range of 12 to 20 min, the “Recovery time after stopping infusion” value is 20 to 25 min and the Sedation onset time is on record as less than 5 min. Further, in the data set on SD rats (setting [4]), the “Types and incidence of adverse reactions: Red urine” value (“Types and incidence … Red urine” below) is listed as “Red urine(6/6), Tongue”; the “Types and incidence of adverse reactions: Tongue stretching” value is listed as “stretching(4/6)”. For the same compound, the Minimal lethal dose in the data set on Sprague-Dawley rats [1] is greater than 3.6 mg/kg. In addition, in the data set with Sprague-Dawley rats [2], the ED50 is 0.04 to 0.5 mg/kg and the Approximate therapeutic index is given as greater than 4.1. Further, in the data set with Sprague-Dawley rats [3], the Righting reflex duration came to 1.24 ± 0.06 min; the Sedation duration is reported as 2.26 ± 0.59 min; the “Adverse reaction: Convulsions” value came to 0; the “Adverse reaction: Cough, broken-winded” value is 0. Moreover, in the data set on Sprague-Dawley rats [3], the “Adverse reaction: Euphoria” value worked out at 0; the “Adverse reaction: Four limbs rigidity” value was 3; the “Adverse reaction: Red urine” value was determined as 8; the “Adverse reaction: Slower breathing, Tetany convulsion” value (shortened to “Adverse reaction: Slower breathing”) stood at 0. In the data set with Sprague-Dawley rats [3], the “Adverse reaction: Systemic stiffness, Convulsions, Opisthotonus” value (from here on “Adverse reaction: Systemic stiffness”) came out at 0; the “Adverse reaction: Tongue stretching” value is on record as 0; the “Adverse reaction: Tremor” value stood at 4. The Onset time with Sprague-Dawley rats [3] (unit s) is less than 0.5 min.

Consider `CCOC(=O)C(=O)c1cncn1[C@H](C)c1ccccc1` [Compound D81], for which, in the data set on SD rats, the “After the infusion is stopped” value lay in the range of 13 to 14 min, the “Recovery time after stopping infusion” value lay within 15 to 25 min and the Sedation onset time is on record as less than 5 min. Further, in the data set with SD rats (setting [4]), the “Types and incidence … Red urine” value was 6/6; the “Types and incidence of adverse reactions: Tremor” value was 2/6; the “Types and incidence of adverse reactions: the four limbs rigidity” value is given as “the four limbs rigidity(2/6)”. The Minimal lethal dose in the data set with Sprague-Dawley rats [1] is recorded as greater than 12.6 mg/kg. Besides, in the data set with Sprague-Dawley rats [2], the ED50 was 0.5 to 1 mg/kg and the Approximate therapeutic index was greater than 15.2. In addition, in the data set with Sprague-Dawley rats [3], the Righting reflex duration is listed as 1.35 ± 0.12 min; the Sedation duration was 4.87 ± 0.39 min; the “Adverse reaction: Convulsions” value was 0; the “Adverse reaction: Cough, broken-winded” value is reported as 0. For the same compound, in the data set on Sprague-Dawley rats [3], the “Adverse reaction: Euphoria” value is 0; the “Adverse reaction: Four limbs rigidity” value amounted to 1; the “Adverse reaction: Red urine” value came to 8; the “Adverse reaction: Slower breathing” value came out at 0. In addition, in the data set with Sprague-Dawley rats [3], the “Adverse reaction: Systemic stiffness” value turned out to be 0; the “Adverse reaction: Tongue stretching” value amounted to 0; the “Adverse reaction: Tremor” value was determined as 1. For the same compound, the Onset time with Sprague-Dawley rats [3] (unit min) is listed as less than 1 min.

`COC(OC)C(=O)c1cc(F)nn1[C@H](C)c1ccccc1` [Compound D25]: in the data set with SD rats, the “After the infusion is stopped” value is 16 to 24 min, the “Recovery time after stopping infusion” value fell in the range of 30 to 40 min and the Sedation onset time is listed as less than 5 min. In addition, in the data set on SD rats (setting [4]), the “Types and incidence of adverse reactions: Hindlimb rigidity” value is on record as “Hindlimb rigidity(1/6)”; the “Types and incidence … Red urine” value is 6/6; the “Types and incidence of adverse reactions: Tremor” value is recorded as 2/6. In the data set on Sprague-Dawley rats [1], this compound yielded a Minimal lethal dose greater than 8.4 mg/kg. Moreover, in the data set on Sprague-Dawley rats [2], the ED50 was 0.5 to 1 mg/kg and the Approximate therapeutic index is greater than 10.2. For the same compound, in the data set with Sprague-Dawley rats [3], the Righting reflex duration came out at 1.52 ± 0.26 min; the Sedation duration is recorded as 6.82 ± 0.27 min; the “Adverse reaction: Convulsions” value is given as 0; the “Adverse reaction: Cough, broken-winded” value worked out at 0. Also, in the data set with Sprague-Dawley rats [3], the “Adverse reaction: Euphoria” value was found to be 0; the “Adverse reaction: Four limbs rigidity” value is given as 1; the “Adverse reaction: Red urine” value came out at 8; the “Adverse reaction: Slower breathing” value is recorded as 0. In the data set with Sprague-Dawley rats [3], the “Adverse reaction: Systemic stiffness” value is recorded as 0; the “Adverse reaction: Tongue stretching” value is reported as 0; the “Adverse reaction: Tremor” value is reported as 2. The Onset time with Sprague-Dawley rats [3] (unit min) is listed as less than 1 min.

`CCSC(OC)(OC)C(=O)c1ccnn1[C@H](C)c1ccccc1` [Compound D2]: in the data set on Sprague-Dawley rats [1], the Minimal lethal dose was greater than 10.5 mg/kg. Also, in the data set with Sprague-Dawley rats [2], the ED50 lay within 2 to 6 mg/kg and the Approximate therapeutic index was greater than 6.6. Also, in the data set with Sprague-Dawley rats [3], the Righting reflex duration is given as 5.82 ± 1.87 min; the Sedation duration is on record as 13.71 ± 3.89 min; the “Adverse reaction: Convulsions” value is recorded as 0; the “Adverse reaction: Cough, broken-winded” value is 2. In the data set on Sprague-Dawley rats [3], the “Adverse reaction: Euphoria” value was found to be 3; the “Adverse reaction: Four limbs rigidity” value amounted to 0; the “Adverse reaction: Red urine” value is given as 8; the “Adverse reaction: Slower breathing” value turned out to be 1. Moreover, in the data set with Sprague-Dawley rats [3], the “Adverse reaction: Systemic stiffness” value amounted to 0; the “Adverse reaction: Tongue stretching” value was 2; the “Adverse reaction: Tremor” value is recorded as 8. For the same compound, the Onset time in the data set with Sprague-Dawley rats [3] (unit min) is on record as less than 1 min.

On to `CC(C)CCOC(=O)C(=O)c1cncn1[C@H](C)c1ccccc1` [Compound D82], for which, in the data set with Sprague-Dawley rats [1], the Minimal lethal dose is greater than 7.8 mg/kg. Also, in the data set with Sprague-Dawley rats [2], the ED50 was in the range of 2 to 6 mg/kg and the Approximate therapeutic index is greater than 6.3. In addition, in the data set with Sprague-Dawley rats [3], the Righting reflex duration is 0.98 ± 0.31 min; the Sedation duration was 6.70 ± 1.46 min; the “Adverse reaction: Convulsions” value amounted to 0; the “Adverse reaction: Cough, broken-winded” value is on record as 0. In the data set with Sprague-Dawley rats [3], the “Adverse reaction: Euphoria” value was determined as 0; the “Adverse reaction: Four limbs rigidity” value is 2; the “Adverse reaction: Red urine” value was 8; the “Adverse reaction: Slower breathing” value was 0. In addition, in the data set on Sprague-Dawley rats [3], the “Adverse reaction: Systemic stiffness” value came to 0; the “Adverse reaction: Tongue stretching” value is 1; the “Adverse reaction: Tremor” value is on record as 0. In addition, the Onset time in the data set with Sprague-Dawley rats [3] (unit min) is on record as less than 1 min.

`COC(OC)(OC)C(=O)c1c(F)ncn1[C@H](C)c1ccccc1` [Compound D93] had a Minimal lethal dose in the data set on Sprague-Dawley rats [1] greater than 1.8 mg/kg. Moreover, in the data set on Sprague-Dawley rats [2], the ED50 fell in the range of 0.04 to 0.5 mg/kg and the Approximate therapeutic index is recorded as greater than 25.1. In addition, in the data set with Sprague-Dawley rats [3], the Righting reflex duration was found to be 2.50 ± 0.30 min; the Sedation duration is given as 6.89 ± 0.80 min; the “Adverse reaction: Convulsions” value stood at 0; the “Adverse reaction: Cough, broken-winded” value amounted to 0. Also, in the data set with Sprague-Dawley rats [3], the “Adverse reaction: Euphoria” value worked out at 0; the “Adverse reaction: Four limbs rigidity” value came out at 0; the “Adverse reaction: Red urine” value came out at 8; the “Adverse reaction: Slower breathing” value came to 0. Besides, in the data set with Sprague-Dawley rats [3], the “Adverse reaction: Systemic stiffness” value worked out at 8; the “Adverse reaction: Tongue stretching” value is given as 1; the “Adverse reaction: Tremor” value is listed as 0. Moreover, in the data set on Sprague-Dawley rats [3] (unit s), the Onset time is less than 0.5 min.

`COC(OC)(OC)C(=O)c1cnnn1[C@H](C)c1ccccc1` [Compound D42] yielded a Minimal lethal dose in the data set with Sprague-Dawley rats [1] greater than 1.8 mg/kg. For the same compound, in the data set on Sprague-Dawley rats [2], the ED50 lay within 0.04 to 0.5 mg/kg and the Approximate therapeutic index is greater than 4.2. In the data set with Sprague-Dawley rats [3], the Righting reflex duration was found to be 1.38 ± 0.15 min; the Sedation duration stood at 3.83 ± 0.74 min; the “Adverse reaction: Convulsions” value is listed as 6; the “Adverse reaction: Cough, broken-winded” value worked out at 0. Further, in the data set on Sprague-Dawley rats [3], the “Adverse reaction: Euphoria” value is given as 0; the “Adverse reaction: Four limbs rigidity” value was determined as 0; the “Adverse reaction: Red urine” value came to 8; the “Adverse reaction: Slower breathing” value was 0. In the data set with Sprague-Dawley rats [3], the “Adverse reaction: Systemic stiffness” value stood at 0; the “Adverse reaction: Tongue stretching” value is reported as 1; the “Adverse reaction: Tremor” value was determined as 1. The Onset time with Sprague-Dawley rats [3] (unit min) is recorded as less than 1 min.

As to `COC(OC)(OC(C)C)C(=O)c1ccnn1[C@H](C)c1ccccc1` [Compound D4], the Minimal lethal dose with Sprague-Dawley rats [1] is on record as greater than 10.1 mg/kg. For the same compound, in the data set on Sprague-Dawley rats [2], the ED50 lay within 2 to 6 mg/kg and the Approximate therapeutic index was greater than 5.0. Moreover, in the data set on Sprague-Dawley rats [3], the Righting reflex duration is 0.98 ± 0.35 min; the Sedation duration is given as 7.28 ± 1.56 min; the “Adverse reaction: Convulsions” value is listed as 0; the “Adverse reaction: Cough, broken-winded” value is 0. In the data set on Sprague-Dawley rats [3], the “Adverse reaction: Euphoria” value is listed as 0; the “Adverse reaction: Four limbs rigidity” value is 0; the “Adverse reaction: Red urine” value stood at 8; the “Adverse reaction: Slower breathing” value stood at 0. In the data set on Sprague-Dawley rats [3], the “Adverse reaction: Systemic stiffness” value amounted to 0; the “Adverse reaction: Tongue stretching” value turned out to be 0; the “Adverse reaction: Tremor” value is reported as 0. In addition, in the data set on Sprague-Dawley rats [3] (unit min), the Onset time is less than 1 min.

In the data set with Sprague-Dawley rats [1], `COC(OC)C(=O)c1cncn1[C@H](C)c1ccccc1` [Compound D87] displayed a Minimal lethal dose greater than 13.2 mg/kg. Besides, in the data set with Sprague-Dawley rats [2], the ED50 was in the range of 1 to 2 mg/kg and the Approximate therapeutic index is reported as greater than 6.8. Besides, in the data set with Sprague-Dawley rats [3], the Righting reflex duration came out at 4.34 ± 0.54 min; the Sedation duration was determined as 8.26 ± 2.74 min; the “Adverse reaction: Convulsions” value was found to be 0; the “Adverse reaction: Cough, broken-winded” value was 0. Besides, in the data set on Sprague-Dawley rats [3], the “Adverse reaction: Euphoria” value was 0; the “Adverse reaction: Four limbs rigidity” value stood at 0; the “Adverse reaction: Red urine” value amounted to 8; the “Adverse reaction: Slower breathing” value is on record as 0. Besides, in the data set with Sprague-Dawley rats [3], the “Adverse reaction: Systemic stiffness” value is 5; the “Adverse reaction: Tongue stretching” value turned out to be 0; the “Adverse reaction: Tremor” value is listed as 0. Also, in the data set with Sprague-Dawley rats [3] (unit s), the Onset time is less than 0.5 min.
